Experimental data reported in US10800726B2, “Rexinoid compounds and methods of using rexinoid compounds for treating metabolic disorders and cancer” (THE UAB RESEARCH FOUNDATION, priority 2014, dated 2020).

What was measured:
[1] = system: estrogen-negative mammary cancers; assay: DMBA-induced mammary carcinogenesis in transgenic erbB2+/− mice; format: in vivo; settings: orally administered, female transgenic erbB2+/− mice, vs control mice, FIG. 1
Text: FIG. 1 is a graph showing the efficacy of 9-cis-UAB30, TARGRETIN, Compound UAB125, and Compound UAB126 in preventing the formation of mammary cancers in ErbB2^+/− female mice. The first bar represents the controls for 9-cis-UAB30 and TARGRETIN. The fourth bar represents the controls for UAB125 and UAB126.
Mammary carcinogenesis was induced in female, transgenic erbB2^+/− mice using 7,12-Dimethylbenz[a]anthracene (DMBA). The mice were orally administered 9-cis-UAB30 (a tissue selective rexinoid), TARGRETIN® (Valeant Pharmaceuticals, West Laurel, Calif.) (i.e., bexarotene, which is a potent RXR agonist), UAB125, or UAB126. The control mice were not administered any compounds. […] Specifically, UAB125 and UAB126 prevented the formation of 68% and 79%, respectively, of the estrogen-negative mammary cancers, while 9-cis-UAB30 and TARGRETIN® prevented only 54% and 65%, respectively.

[2] = High fat diet-induced obesity: body weight, body composition (QMR), food intake; format: in vivo, C57BL/6J mice
Text: (§1) Twelve C57BL/6J mice were randomly divided into two groups, namely high fat diet (HFD) (60% of calories from fat) fed with or without Compound UAB126 (1.5 g/kg food) for 10 weeks.
(§2) Also, fasting glucose levels in mice fed HFD with Compound UAB126 were lower than mice fed HFD (FIG. 5). […] Food intake was not different between the 2 groups.

[3] = Glucose tolerance, insulin sensitivity and fasting glucose in high fat diet fed mice; format: in vivo, C57BL/6J mice; settings: HFD with compound
Text: as §1, §2

[4] = Serum triglyceride, cholesterol and free fatty acids in high fat diet fed mice; format: in vivo, C57BL/6J mice
Text: as §1
Previously developed rexinoids have the adverse side effect of elevating serum triglyceride (TG) level. […] Thus, Compound UAB126 can regulate lipid metabolism.

[5] = QMR, normalized by body weight, FIG. 6B
[6] = QMR, without normalization, FIG. 6A

With `O=C(O)C=Cc1ccc(-c2cccc3ccccc23)cc1` (single isomer, unassigned) [UAB126, 3-(4-(1-naphthyl)phenyl)propenoic acid] the “prevention of formation of estrogen-negative mammary cancers” value (shortened to “prevention”) [1] was 79%, the “final body weight (avg.)” value ([2]; HFD (60% of calories from fat) with compound 1.5 g/kg food, 10 weeks, avg. initial 22.5 g, HFD alone: initial 23 g, final 40 g, FIG. 2) was 27.8 g and the “body weight gain compared to HFD fed mice without compound” value ([2]; HFD with compound 1.5 g/kg food, 10 weeks, FIG. 2) was “gained less body weight”. For the same compound, the “fat mass normalized by body weight, compared to HFD fed mice” value [2, 5] was “less fat mass”, the “lean mass normalized by body weight, compared to HFD fed mice” value [2, 5] was “more lean mass” and the fat mass [2, 6] was “markedly reduced”. For the same compound, the lean mass [2, 6] was “slightly reduced”, the “glucose tolerance vs mice fed HFD alone” value ([3]; FIG. 3) was “more glucose tolerant” and the “insulin sensitivity vs mice fed HFD alone” value ([3]; FIG. 4) was “insulin sensitive”. The “fasting glucose levels vs mice fed HFD” value ([3]; FIG. 5) was “lower”, the serum triglyceride levels ([4]; HFD with compound vs HFD, FIG. 7) was “significantly reduced” and the serum cholesterol ([4]; compared to HFD vehicle treated mice, FIG. 8A) was “significantly decreased”. The “serum free fatty acids (FFA)” value ([4]; compared to HFD vehicle treated mice, FIG. 8B) was “significantly decreased”.
With `CC(=C/C=C/C(C)=C/C(=O)O)/C=C1\CCCc2ccccc21` [Compound 9-cis-UAB30, reference compound] the “prevention” value [1] was 54%.
With `C=C(c1ccc(C(=O)O)cc1)c1cc2c(cc1C)C(C)(C)CCC2(C)C` [TARGRETIN, bexarotene, reference compound] the “prevention” value [1] was 65%.
In the case of `Cc1ccc(-c2cccc(C=CC(=O)O)c2)c2ccccc12` (single isomer, unassigned) [UAB125, 3-(3-(4-methyl-1-naphthyl)phenyl)propenoic acid], the “prevention” value [1] is reported as 68%.
